These results are taken from patent publication US8865756B2, “Inhibitors of HCV NS5A” (Presidio Pharmaceuticals, Inc., priority 2008, dated 2014).

This assay concerns HCV 1b_Huh-Luc/Neo-ET cell line persistently expressing a bicistronic genotype 1b replicon in Huh 7 cells. Nature of the assay: HCV replicon assay (luciferase readout). The assay is classed as cell-based. The settings on record: Hepatitis C virus, Huh-7, 72 h, read-out: Inhibition of HCV genotype 1b. The method in brief: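 EC50, determined repeatedly, comes from a four-parameter logistic fit of luciferase signal as percent of untreated control. Readout follows 72 h compound exposure, in triplicate, of the HCV 1b_Huh-Luc/Neo-ET replicon line.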
A general note: A replicon is a self-replicating genome or part of one, used to study replication in cells.

The structures appear in SMILES notation. pEC50: −log10 of the molar value.

With `COC(=O)N[C@H](C(=O)N1CCC[C@H]1c1ncc(-c2ccc(C#Cc3ccc(-c4cnc([C@@H]5CCCN5C(=O)[C@@H](c5ccccc5)N5CCN(CCO)CC5)[nH]4)cc3)cc2)[nH]1)C(C)C` [Compound 958], the pEC50 is > 9.00.

Regarding `O=C([C@@H](c1ccccc1)N1CCCC1)N1CCC[C@H]1c1ncc(-c2ccc(C#Cc3ccc(-c4cnc([C@@H]5CCCN5C(=O)[C@@H](c5ccccc5)N5CCCC5)[nH]4)cc3)cc2)[nH]1` [Compound 194], the pEC50 was > 9.00. For `COC(=O)N[C@@H](C(=O)N1CCC[C@H]1c1ncc(-c2ccc(C#Cc3ccc(-c4cnc([C@@H]5CCCN5C(=O)OCc5ccccc5)[nH]4)cc3)cc2)[nH]1)c1ccccc1` [Compound 200] the value was > 9.00; for `COC(=O)N[C@H](C(=O)N1CCC[C@H]1c1ncc(-c2ccc(C#Cc3ccc(-c4cnc([C@@H]5CCCN5C(=O)[C@@H](NC(=O)OC)C(C)C)[nH]4)cc3)cc2)[nH]1)C(C)C` [Compound 266], > 9.00. The figure for `COC(=O)N[C@H](C(=O)N1CCC[C@H]1c1ncc(-c2ccc(C#Cc3ccc(-c4cnc([C@@H]5CCCN5C(=O)[C@@H](NC(=O)OC)C(C)(C)O)[nH]4)cc3)cc2)[nH]1)C(C)(C)O` [Compound 993] is > 9.00; for `COC(=O)N[C@@H](C(=O)N1CCC[C@H]1c1ncc(-c2ccc(C#Cc3ccc(-c4cnc([C@@H]5CCCN5C(=O)[C@H](NS(C)(=O)=O)c5ccccc5)[nH]4)cc3)cc2)[nH]1)c1ccccc1` [Compound 225] it is > 9.00; for `COC(=O)N[C@H](C(=O)N[C@@H](C)c1ncc(-c2ccc(C#Cc3ccc(-c4cnc([C@@H]5CCCN5C(=O)[C@@H](C(C)C)N(C)C)[nH]4)cc3)cc2)[nH]1)C(C)C` [Compound 964] it is 8.00 to 9.00. Consider `COC(=O)N[C@H](C(=O)N1CCC[C@H]1c1ncc(-c2ccc(C#Cc3ccc(-c4cnc([C@@H]5CCCN5C(=O)[C@@H](Nc5ncccn5)C(C)C)[nH]4)cc3)cc2)[nH]1)C(C)C` [Compound 1003], for which the pEC50 is > 9.00.

Regarding `COC(=O)N[C@H](C(=O)N1CCC[C@H]1c1ncc(-c2ccc(C#Cc3ccc4nc([C@@H]5CCCN5C(=O)[C@@H](NC(=O)OC)[C@@H](C)O)[nH]c4c3)cc2)[nH]1)[C@@H](C)O` [Compound 863], the pEC50 is > 9.00.

With `COC(=O)N[C@@H](C(=O)N1CCC[C@H]1c1ncc(-c2ccc(C#Cc3ccc(-c4cnc([C@@H]5CCCN5C(=O)[C@H](NC(=O)[C@H]5CCCO5)c5ccccc5)[nH]4)cc3)cc2)[nH]1)c1ccccc1` [Compound 201], the pEC50 was > 9.00. With `COC(=O)N[C@H](C(=O)N1CCC[C@H]1c1ncc(-c2ccc(C#Cc3ccc4nc([C@@H]5CCCN5C(=O)[C@@H](NC(=O)OC)[C@H](C)O)[nH]c4c3)cc2)[nH]1)[C@H](C)O` [Compound 1031], the pEC50 was > 9.00. The figure for `CN1CCN(C(=O)N[C@@H](C(=O)N2CCC[C@H]2c2ncc(-c3ccc(C#Cc4ccc(-c5cnc([C@@H]6CCCN6C(=O)[C@H](NC(=O)N6CCN(C)CC6)c6ccccc6)[nH]5)cc4)cc3)[nH]2)c2ccccc2)CC1` [Compound 159] is > 9.00; for `CC1(O)CCN(C(=O)N[C@@H](C(=O)N2CCC[C@H]2c2ncc(C#Cc3ccc(-c4ccc(-c5cnc([C@@H]6CCCN6C(=O)[C@H](NC(=O)N6CCC(C)(O)CC6)c6ccccc6)[nH]5)cc4)cc3)[nH]2)c2ccccc2)CC1` [Compound 870] it is > 9.00; for `COC(=O)N[C@@H](C(=O)N1CCC[C@H]1c1ncc(-c2ccc(C#Cc3ccc(-c4cnc([C@@H]5CCCN5C(=O)[C@H](NC(=O)OC)C(C)C)[nH]4)cc3)cc2)[nH]1)C(C)C` [Compound 292] it is < 6.00. The figure for `COC(=O)N[C@H](C(=O)N1CCC[C@H]1c1ncc(-c2ccc(C#Cc3ccc4nc([C@@H]5CCCN5C(=O)[C@@H](C(C)C)N(C)C)[nH]c4c3)cc2)[nH]1)C(C)C` [Compound 1020] is > 9.00; for `CN(C)C(=O)N[C@@H](C(=O)N1CCC[C@H]1c1cc(-c2ccc(C#Cc3ccc(-c4cnc([C@@H]5CCCN5C(=O)[C@H](NC(=O)N(C)C)c5ccccc5)[nH]4)cc3)cc2)n[nH]1)c1ccccc1` [Compound 221] it is > 9.00. For `COC(=O)N[C@@H](C(=O)N1CCC[C@H]1c1ncc(-c2ccc(C#Cc3ccc(-c4cnc([C@@H]5CCCN5C(=O)[C@H](NC(=O)OC)c5ccccc5)[nH]4)cn3)cc2)[nH]1)c1ccccc1` [Compound 1010] the value was > 9.00. `COC(=O)N[C@H](C(=O)N1CCC[C@H]1c1ncc(-c2ccc(C#Cc3ccc(-c4cnc([C@@H]5CCCN5C(=O)[C@H](C(C)C)N5CCOC5=O)[nH]4)cc3)cc2)[nH]1)C(C)C` [Compound 996]: the pEC50 is > 9.00. For `CC(C)(C)OC(=O)N[C@@H](C(=O)N1CCC[C@H]1C(=O)NCc1ccc(C#Cc2cnc([C@@H]3CCCN3C(=O)[C@H](NC(=O)OC(C)(C)C)c3ccccc3)[nH]2)cc1)c1ccccc1` [Compound 119] the value was > 9.00; for `COC(=O)N[C@H](C(=O)N1CCC[C@H]1c1ncc(-c2ccc(C#Cc3ccc(-c4cnc([C@@H]5CCCN5C(=O)[C@H](NC(=O)N5CCC(O)CC5)c5ccccc5)[nH]4)cc3)cc2)[nH]1)C(C)C` [Compound 991], 8.00 to 9.00; for `COC(=O)N[C@@H](C(=O)N1CCC[C@H]1c1ncc(-c2ccc(C#Cc3ccc(-c4cnc([C@@H]5CCCN5C(=O)[C@H](NC(=O)C5CC5)c5ccccc5)[nH]4)cc3)cc2)[nH]1)c1ccccc1` [Compound 218], > 9.00. The figure for `C[C@H]1OC(=O)N(C)[C@@H]1C(=O)N1CCC[C@H]1c1ncc(-c2ccc(C#Cc3ccc(-c4cnc([C@@H]5CCCN5C(=O)[C@@H]5[C@@H](C)OC(=O)N5C)[nH]4)cc3)cc2)[nH]1` [Compound 980] is 6.00 to 8.00; for `O=C(N[C@@H](C(=O)N1CCC[C@H]1c1nc(-c2ccc3cc(C#Cc4cnc([C@@H]5CCCN5C(=O)[C@H](NC(=O)N5CC[C@@H](O)C5)c5ccccc5)[nH]4)ccc3c2)c[nH]1)c1ccccc1)N1CC[C@@H](O)C1` [Compound 807] it is 8.00 to 9.00. The figure for `COC(=O)N[C@H](C(=O)N1CCC[C@H]1c1ncc(-c2ccc(C#Cc3ccc4nc([C@@H]5CCCN5C(=O)[C@@H](NC(=O)OC)C5CCCC5)[nH]c4c3)cc2)[nH]1)C1CCCC1` [Compound 1025] is > 9.00; for `CC(C)[C@@H](NC(=O)OC(C)(C)C)C(=O)N1CCC[C@H]1C(=O)NCc1ccc(C#Cc2cnc([C@@H]3CCCN3C(=O)[C@H](NC(=O)OC(C)(C)C)C(C)C)[nH]2)cc1` [Compound 120] it is 6.00 to 8.00; for `COC(=O)N[C@H](C(=O)N1CCOC[C@H]1c1ncc(-c2ccc(C#Cc3ccc4nc([C@@H]5CCCN5C(=O)[C@@H](NC(=O)OC)C(C)C)[nH]c4c3)cc2)[nH]1)C(C)C` [Compound 1027] it is > 9.00. Regarding `COC(=O)N[C@@H](C(=O)N1CCC[C@H]1c1ncc(-c2ccc(C#Cc3ccc(-c4cnc([C@@H]5CCCN5C(=O)c5cccnc5)[nH]4)cc3)cc2)[nH]1)c1ccccc1` [Compound 183], the pEC50 is > 9.00.

In the case of `COC(=O)N[C@H](C(=O)N1CCC[C@H]1c1ncc(-c2ccc(C#Cc3ccc(-c4cnc([C@@H]5CCCN5C(=O)[C@H](NC(=O)N5CCN(C)CC5)c5ccccc5)[nH]4)cc3)cc2)[nH]1)C(C)C` [Compound 989], the pEC50 was > 9.00.

For `O=C(N[C@@H](C(=O)N1CCC[C@H]1c1nc(-c2ccc3cc(C#Cc4cnc([C@@H]5CCCN5C(=O)[C@H](NC(=O)C5CC5)c5ccccc5)[nH]4)ccc3c2)c[nH]1)c1ccccc1)C1CC1` [Compound 804], the pEC50 is > 9.00.
